Experimental data: patent US6610714B2, “Non-nucleoside reverse transcriptase inhibitors” (Medivir AB, priority 2001, dated 2003)

These compounds were tested on HIV-1IIIB (wild type) (assay: XTT assay in MT-4 cells infected with wild type HIV-1IIIB). Details: Human immunodeficiency virus 1, MT4, read-out: ED50.
Assay type: cell-based
Procedure: Compounds of the invention are assayed for HIV activity, for example using multiple determinations with XTT in MT-4 cells (Weislow et al, J Nat Cancer Inst 1989, vol 81 no 8, 577 et seq), preferably including determinations in the presence of 40-50% human serum to indicate the contribution of protein binding. In short the XTT assay uses human T cell line MT4 cells grown in RPMI 1640 medium supplemented with 10% fetal calf serum (or 40-50% human serum as appropriate), penicillin and streptomycin seeded into 96 well microplates (2·10^4 cells/well) infected with 10-20 TCID50 per well of HIV-1IIIB (wild type) or mutant virus, such as those bearing RT IIe 100, Cys 181 or Asn 103 mutations. Serially diluted test compounds are added to respective wells and the culture incubated at 37° C. in a CO2 enriched atmosphere and the viability of cells is determined at day five or six with XTT vital dye. Results are typically presented as ED50 μM.

Going from `COc1ccc2c(c1)CC[C@H]1[C@@H](NC(=O)Nc3ccc(C#N)cn3)[C@@H]21` [Example 5, +/−cis-N-(5-cyano-2-pyridinyl)-N-(5-methoxy-1a,2,3,7b-tetrahydro-1H-cyclopropa[a]naphthalen-1-yl)urea] to `COc1ccc2c(c1)[C@H]1[C@@H](CC2)[C@H]1NC(=O)Nc1ccc(C#N)cn1` [Example 6, +/−cis-N-(5-cyano-2-pyridinyl)-N-(6-methoxy-1a,2,3,7b-tetrahydro-1H cyclopropa[a]naphthalen-1-yl)urea], the EC50 rises from 9 nM to 36 nM (4-fold). The first is the more potent here.

`N#Cc1ccc(NC(=O)N[C@@H]2[C@@H]3Cc4cc(Br)ccc4[C@@H]32)nc1` (racemic) [Example 17, (±)-cis-1-(5-cyano-2-pyridinyl)-3-(4-bromo-1,1a,6,6a-tetrahydro-cyclopropa[a]inden-1-yl)-urea] and `C#Cc1ccc2c(c1)CC[C@H]1[C@@H](NC(=O)Nc3ccc(C#N)cn3)[C@@H]21` [Example 8, +/−cis-N-(5-cyano-2-pyridinyl)-N-(5-ethynyl-1a,2,3,7b-tetrahydro-1H-cyclopropa[a]naphthalen-1-yl)urea] are within 1.5-fold of each other in EC50: 42 nM for the first, 32 nM for the second.

Going from `C#Cc1ccc2c(c1)CC[C@H]1[C@@H](NC(=O)Nc3ccc(Br)cn3)[C@@H]21` [Example 9, +/−cis-N-(5-bromo-2-pyridinyl)-N-(5-ethynyl-1a,2,3,7b-tetrahydro-1H-cyclopropa[a]naphthalen-1-yl)urea] to `N#Cc1ccc(NC(=O)N[C@@H]2[C@@H]3Cc4c(F)ccc(F)c4[C@@H]32)nc1` (racemic) [Example 20, (±)-cis-1-(5-cyano-2-pyridinyl)-3-(2,5-difluoro-1,1a,6,6a-tetrahydro-cyclopropa[a]inden-1-yl)-urea], the EC50 falls from 44 nM to 14 nM (3.1-fold).

With `O=C(Nc1ccc(Cl)cn1)N[C@@H]1[C@@H]2Cc3c(F)ccc(F)c3[C@@H]21` (racemic) [Example 19, (±)-cis-1-(5-chloro-2-pyridinyl)-3-(2,5-difluoro-1,1a,6,6a-tetrahydro-cyclopropa[a]inden-1-yl)-urea] the EC50 was 10 nM.
